Marks after values point to notes of the source that are not given here. Ends that are not written are not given here.
Columns and labels:
[1] = system: Diet Induced Obese (DIO) mice; assay: Body weight and fat mass in Diet Induced Obese mice, 10 days (Example 20); format: in vivo, Male C57BL/6 mice; conditions: male DIO mice, N = 8, Mean (SEM)
Procedure: Male C57BL/6 mice were maintained on a high fat diet for 18 weeks to develop diet induced obesity. Animals were randomized to treatment groups based on blood glucose levels and body weight. The peptides of the invention were administered to two groups of male DIG mice once or twice daily by intraperitoneal or subcutaneous injection at a doses of 5 to 15 mg/kg/dose for 10 days (N=8 animals per treatment group). An additional group of male DIG mice (n=8) received vehicle (water or saline) alone. Body weight, blood glucose levels and food intake were monitored. Body mass distribution (fat vs lean) was determined by quantitative whole body NMR prior to dosing and at the end of dosing. Administration of the peptides of the invention produced body weight loss and/or decrease in fat mass from baseline values (Table 18).

3T3-L1 Adipocytes [2] = assay: Free fatty acid levels in cultured mouse 3T3-L1 adipocytes, isoproterenol stimulated (Example 17); format: cell-based; conditions: Peptide Concentration 25 μM; isoproterenol 1 nM
Procedure: Mouse 3T3-L1 cells were seeded at a density between 1,000-20,000 cells per well on 96-well, 48-well, or 24-well plates in Pre-adipocyte Medium (Zen-Bio, Durham, N.C.) and grown to confluence at 37° C. in a humidified atmosphere of 5% CO2/95% air. Two days after confluence, cells were placed in Adipocyte Differentiation Medium (Zen-Bio, Durham, N.C.) and cultured for three additional days at 37° C. in a humidified atmosphere of 5% CO2/95% air. The culture media was then replaced with Adipocyte Maintenance Medium (Zen-Bio) and the cells were maintained for an additional 9-14 days at 37° C. in a humidified atmosphere of 5% CO2/95% air with partial medium replacement every other day. Following 12-17 days of differentiation, test peptides were added at a final concentration of 25-50 μM and incubated for 18-20 hours in Adipocyte Maintenance Medium at 37° C. in a humidified atmosphere of 5% CO2/95%. After the media incubation, media was removed and exchanged with Assay Buffer (Zen-Bio) containing isoproterenol (1 nM) (added to all samples except untreated controls) and the test peptides. Cells were incubated for a further 3 hours at 37° C. in a humidified atmosphere of 5% CO2/95%. Free fatty acid concentrations in the media were determined using a Free Fatty Acid Assay Kit (Zen-Bio) according to the manufacturer's instructions using a plate reader (540 nm).
Absorbance values were corrected for untreated background and expressed relative to isoproterenol treated cells. Treatment with isoproterenol (1 nM) alone was used as the free fatty acid level stimulatory control. The relative standard deviation of the isoproterenol control was <10%. […] Free fatty acid levels for insulin (100 nM) treatment were <5% of the isoproterenol control value.

[3] = system: Diet Induced Obese (DIO) mice; assay: Body weight and fat mass in Diet Induced Obese mice, 21-day study (Example 7); format: in vivo, Male C57BL/6 mice; conditions: male DIO mice, Mean (SD)
Procedure: Male C57BL/6 mice were maintained on a high fat diet for 12 to 22 weeks to develop diet induced obesity. Animals were randomized to treatment groups based on blood glucose levels and body weight. The peptides (SEQ ID No: 208 and SEQ ID NO: 210) were each administered to a group of male DIO mice twice daily by appropriate routes at a dose of 15 mg/kg/dose for 21 days (N=8 to 12 animals per treatment group). […] Metabolic parameters including body weight, blood glucose levels and food intake were monitored. Body mass distribution (fat vs lean) was determined where appropriate by quantitative whole body NMR prior to dosing and at the end of dosing.

[4] = system: STAM Mouse Model of Non-alcoholic Steatohepatitis (NASH); assay: Liver triglyceride and plasma ALT levels in STAM mouse model of NASH (Example 19); format: in vivo, C57/BL6 mice; conditions: male STAM mice, N = 8, Mean (SD)
Procedure: In the STAM® model of NASH, C57/BL6 mice were injected with a single subcutaneous dose of 200 μg […], two days after birth to destroy pancreatic j-cells. At the age of 4 weeks, animals were put on a high fat diet (57% kcal from fat) and maintained on the same diet throughout the study. […] […] A control group of STAM animals (n=8) received daily doses of telmisartan control compound (10 mg/kg). An additional group of normal mice (n=8) received no treatment. After 21 days of dosing, at 9 weeks of age, metabolic parameters were determined and animals were sacrificed. Liver triglyceride levels were determined by homogenization in chloroform-methanol and incubation overnight at room temperature. After washing with chloroform-methanol-water, the extracts were evaporated to dryness and dissolved in isopropanol. Liver triglyceride content was then measured by Triglyceride E-test (Wako, Japan). Plasma ALT levels were determined by using Fuji Dri-Chem 7000 (Fujifilm, Japan).

[5] = system: STAM Mouse Model of Non-alcoholic Steatohepatitis (NASH); assay: NAFLD activity score in STAM mouse model of NASH (Example 18); format: in vivo, C57/BL6 mice; conditions: male STAM mice, N = 8, Mean (SD)
Procedure: In the STAM® model of NASH, C57/BL6 mice were injected with a single subcutaneous dose of 200 μg […], two days after birth to destroy pancreatic j-cells. At the age of 4 weeks, animals were put on a high fat diet (57% kcal from fat) and maintained on the same diet throughout the study. […] Beginning at 6 weeks of age, groups of STAM animals (8 animals per group) were treated with the peptides of the present invention administered twice daily by intraperitoneal injection, until study termination. A control group of STAM animals (n=8) received daily doses of telmisartan control compound (10 mg/kg). An additional group of normal mice (n=8) received no treatment. After 21 days of dosing, at 9 weeks of age, metabolic parameters were determined and animals were sacrificed. Liver samples were obtained and fixed, embedded in paraffin, stained with hematoxylin and eosin, and examined by light microscopy. The extent of steatosis and the non-alcoholic fatty liver disease (NAFLD) activity score (NAS) were determined histopathologically according to methods known in the art.

[6] = system: Diet Induced Obese (DIO) mice; assay: Serum triglycerides and enzyme markers of liver damage in DIO mice, 21 days (Example 9); format: in vivo, Male C57BL/6 mice; conditions: male DIO mice; for reduction in serum ALT compared to liraglutide or vehicle alone / reduction in serum AST compared to liraglutide or vehicle alone / reduction in serum triglycerides compared to liraglutide or vehicle alone: 21 days twice daily 15 mg/kg/dose; for ALT (U/L), mean concentration in serum / AST (U/L), mean concentration in serum / Triglycerides (mg/dL), mean concentration in serum: 21 days twice daily IP 15 mg/kg/dose, serum 2 hours after first dose on Day 21
Procedure: Male C57BL/6 mice were maintained on a high fat diet for 12 to 22 weeks to develop diet induced obesity. Animals were randomized to treatment groups based on blood glucose levels and body weight. The peptides (SEQ ID No: 208, and SEQ ID NO: 210) were each administered to a group of male DIG mice twice daily by appropriate routes at a dose of 15 mg/kg/dose for 21 days (N=8 to 12 animals per treatment group). […] Serum samples were obtained at termination 2 hours after the first dose on Day 21. Samples were analyzed for standard clinical chemistry parameters by methods well known in the art.

3T3-L1 Adipocytes [7] = assay: Free fatty acid levels in cultured mouse 3T3-L1 adipocytes, isoproterenol stimulated (Example 2); format: cell-based; conditions: test peptides 25 μM; isoproterenol 1 nM
Procedure, shortened: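 Release of free fatty acids, read at 540 nm, was stimulated with 1 nM isoproterenol for 3 h in mouse 3T3-L1 adipocytes (12–17 days of differentiation). Cells were pre-exposed to 25 μM peptide for 18–20 h plus 1 h, with peptide kept in during stimulation. Values are background-subtracted and normalised to isoproterenol alone.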

[8] = Stability in mouse plasma, peptides 10 uM (Example 15); format: in vitro ADME; conditions: mouse plasma 37° C., peptide 10 uM
Procedure: Peptides (10 uM) were incubated in pooled mouse plasma at 37° C. and samples were removed and immediately analyzed for the concentration of intact peptide by LC/MS/MS over the course of 3 hours. The percent of peptide remaining in plasma at each time point was calculated relative to the initial peak area (Table 13).

[9] = 10 days once daily administration 15 mg/kg
[10] = 10 days twice daily intraperitoneal 15 mg/kg
[11] = 21 days twice daily IP 15 mg/kg/dose
[12] = 21 days IP BID 15 mg/kg/dose beginning at 6 weeks of age

Compound: 357 (PEG600-KRWQEMNYIFYPR) [compound 357]
- Decrease from Baseline in Body Weight (%) [1, 9]: −1.2 (0.6) %
- Decrease from Baseline in Fat Mass (g) [1, 9]: −0.2 (0.2) g
- Decrease from Baseline in Body Weight (%) [1, 10]: −3.4 (1.0) %
- Decrease from Baseline in Fat Mass (g) [1, 10]: −1.0 (0.4) g
- Free Fatty Acid Levels in 3T3-L1 Adipocytes Expressed as a Percent of Isoproterenol Control: Percent of Control Value (3T3-L1 Adipocytes [2]): 30.8%

Compound: CCc1ccc(CCOc2ccc(CC3SC(=O)NC3=O)cc2)nc1 (stereo not shown) [Pioglitazone, pioglitazone, reference compound]
- Decrease from Baseline in Body Weight (%) ([3]; 21 days twice daily PO 15 mg/kg/dose): 1.0 (3.1) %

Compound: CCCc1nc2c(C)cc(-c3nc4ccccc4n3C)cc2n1Cc1ccc(-c2ccccc2C(=O)O)cc1 [Telmisartan, telmisartan, reference compound]
- Liver Triglyceride Levels (mg/g liver) ([4]; 21 days PO BID 10 mg/kg): 18.8 (5.8)* mg/g liver
- Plasma ALT (U/L) ([4]; 21 days PO BID 10 mg/kg): 39 (6)* U/L
- NAFLD Activity Score (NAS) ([5]; 21 days PO QD 10 mg/kg/dose beginning at 6 weeks of age): 2.6 (0.5)*

Compound: H-EMNYIFYPR-OH [compound 364]
- Decrease from Baseline in Body Weight (%) [1, 10]: −6.6 (1.6) %
- Decrease from Baseline in Fat Mass (g) [1, 10]: −3.7 (1.2) g
- Free Fatty Acid Levels in 3T3-L1 Adipocytes Expressed as a Percent of Isoproterenol Control: Percent of Control Value (3T3-L1 Adipocytes [2]): 87.2%

Compound: H-MRWQEMGYIFYPRKLR-OH [SEQ ID NO: 2, reference compound]
- Decrease from Baseline in Body Weight (%) [3, 11]: −9.3 (5.0) %

Compound: H-MRWQEMNYIFYPR-OH [SEQ ID NO: 208]
- Liver Triglyceride Levels (mg/g liver) [4, 12]: 35.3 (15.1)* mg/g liver
- Plasma ALT (U/L) [4, 12]: 43 (16)* U/L
- NAFLD Activity Score (NAS) [5, 12]: 3.7 (0.5)*
- reduction in serum ALT compared to liraglutide or vehicle alone [6]: greater reduction
- reduction in serum AST compared to liraglutide or vehicle alone [6]: greater reduction
- reduction in serum triglycerides compared to liraglutide or vehicle alone [6]: greater reduction
- ALT (U/L), mean concentration in serum [6]: 40.4 U/L
- AST (U/L), mean concentration in serum [6]: 70.0 U/L
- Triglycerides (mg/dL), mean concentration in serum [6]: 76.0 mg/dL
- Decrease from Baseline in Body Weight (%) [3, 11]: −17.2 (3.0) %
- Decrease from Baseline in Fat Mass (g) [3, 11]: −6.4 (0.5) g

Compound: H-NYIFYPR-OH [compound 361]
- Decrease from Baseline in Body Weight (%) [1, 10]: −5.8 (0.8) %
- Decrease from Baseline in Fat Mass (g) [1, 10]: −3.8 (0.5) g
- Free Fatty Acid Levels in 3T3-L1 Adipocytes Expressed as a Percent of Isoproterenol Control: Percent of Control Value (3T3-L1 Adipocytes [2]): 76.3%

Compound: H-RWQEMNYIFYP-OH [compound 283]
- Decrease from Baseline in Body Weight (%) [1, 10]: −5.5 (0.4) %
- Decrease from Baseline in Fat Mass (g) [1, 10]: −3.0 (0.2) g
- Free Fatty Acid Levels in 3T3-L1 Adipocytes Expressed as a Percent of Isoproterenol Control: Percent of Control Value (3T3-L1 Adipocytes [7]): 90.8%
- % Remaining at Each Time Point: 0 min ([8]; 0 min): 100%
- remaining at 0.25 h, 10 uM ([8]; pooled mouse plasma, 15 min, read-out: % Remaining at Each Time Point: 15 min): 54.3%
- remaining at 0.5 h, 10 uM ([8]; pooled mouse plasma, 30 min, read-out: % Remaining at Each Time Point: 30 min): 25.8%
- remaining at 1 h, 10 uM ([8]; pooled mouse plasma, 60 min, read-out: % Remaining at Each Time Point: 60 min): 2.05%
- remaining at 2 h, 10 uM ([8]; pooled mouse plasma, 120 min, read-out: % Remaining at Each Time Point: 120 min): 0.35%
- remaining at 3 h, 10 uM ([8]; pooled mouse plasma, 180 min, read-out: % Remaining at Each Time Point: 180 min): 0.14%

Compound: H-RWQEMNYIFYPR-OH [SEQ ID NO: 210]
- Liver Triglyceride Levels (mg/g liver) [4, 12]: 43.6 (9.3)* mg/g liver
- Plasma ALT (U/L) [4, 12]: 37 (13)* U/L
- NAFLD Activity Score (NAS) [5, 12]: 3.3 (1.1)*
- reduction in serum ALT compared to liraglutide or vehicle alone [6]: greater reduction
- reduction in serum AST compared to liraglutide or vehicle alone [6]: greater reduction
- reduction in serum triglycerides compared to liraglutide or vehicle alone [6]: greater reduction
- ALT (U/L), mean concentration in serum [6]: 45.0 U/L
- AST (U/L), mean concentration in serum [6]: 125 U/L
- Triglycerides (mg/dL), mean concentration in serum [6]: 93.0 mg/dL
- Decrease from Baseline in Body Weight (%) [3, 11]: −14.1 (4.8) %

— patent US11753445B2, “Therapeutic peptides” (COHBAR, INC., priority 2016, dated 2023)
